The record followed here is ChEMBL document CHEMBL1151029, “Structure-activity relationships of sulfur-containing triazole antifungals” (1995).

≈ marks a conversion by molar mass, not a printed value.

Format in all cases: functional
One experiment has as its system Candida albicans. The experiment can be described thus: In vitro antifungal activity against Candida albicans KB-8.
Experiment [1] can be described thus: Mean survival days evaluated in vivo for prophylactic efficiency against murine systemic aspergillosis at a dose of 50 mg/kg.
Experiment [2] in a line: Mean survival days evaluated in vivo for prophylactic efficiency against murine systemic candidiasis at a dose of 10 mg/kg.
The next experiment has as its system Aspergillus fumigatus. Nature of the experiment: In vitro antifungal activity against Aspergillus fumigatus MTU6001.
In the next experiment the test system is Mus musculus. Nature of the experiment: Mean survival days evaluated in vivo for prophylactic efficiency against murine systemic aspergillosis at a dose of 100 mg/kg.

As for `C[C@H]([C@](O)(Cn1cncn1)c1ccc(F)cc1F)S(=O)(=O)CCCCCCO`, the values for the MIC in the experiment with Candida albicans and against Aspergillus fumigatus were 0.39 µg/mL (≈ 0.934 µM) and 100 µg/mL (≈ 240 µM), respectively. The Mean survival was determined as 3.1 days in experiment [1] and 1.4 days in experiment [2].
On to `CCCCCCCS[C@H](C)[C@](O)(Cn1cncn1)c1ccc(F)cc1F`, for which the MIC in the experiment with Candida albicans is ≤ 0.013 µg/mL; in the experiment with Aspergillus fumigatus it was ≤ 0.2 µg/mL. Further, the values for the Mean survival in experiment [1] and in experiment [2] were 2.2 days and 10 days, respectively.
For `C[C@H]([C@](O)(Cn1cncn1)c1ccc(F)cc1F)S(=O)(=O)CCCCCCCO`, in that order: 0.39 µg/mL (≈ 0.904 µM), 25 µg/mL (≈ 57.9 µM), 1.2 days and 1 days.
With `CCCCCCCCS(=O)(=O)[C@H](C)[C@](O)(Cn1cncn1)c1ccc(F)cc1F`, the values for the MIC in the experiment on Candida albicans and with Aspergillus fumigatus were ≤ 0.013 µg/mL and 3.13 µg/mL (≈ 7.29 µM), respectively. The figures for the Mean survival in experiment [1] and in experiment [2] were 1.6 days and 1.3 days, respectively.
The like results for `CCCCCCCCCCS[C@H](C)[C@](O)(Cn1cncn1)c1ccc(F)cc1F` were, in that order, ≤ 0.013 µg/mL, 0.78 µg/mL (≈ 1.83 µM), 8 days and 9.1 days.
As for `CCCS(=O)(=O)[C@H](C)[C@](O)(Cn1cncn1)c1ccc(F)cc1F`, the MIC in the experiment with Candida albicans turned out to be 0.2 µg/mL (≈ 0.556 µM); against Aspergillus fumigatus, 6.25 µg/mL (≈ 17.4 µM). In addition, the Mean survival in experiment [1] is 10 days; in experiment [2], 8.3 days.
The like results for `CCCS[C@H](C)[C@](O)(Cn1cncn1)c1ccc(F)cc1F` were, in that order, 0.1 µg/mL (≈ 0.305 µM), 12.5 µg/mL (≈ 38.2 µM), 1 days and 4.4 days.
The like results for `CCCCCCCCCS(=O)(=O)[C@H](C)[C@](O)(Cn1cncn1)c1ccc(F)cc1F` were, in that order, ≤ 0.013 µg/mL, 0.78 µg/mL (≈ 1.76 µM), 1 days and 0.6 days.
The like results for `CCCCCCCCCS[C@H](C)[C@](O)(Cn1cncn1)c1ccc(F)cc1F` were, in that order, ≤ 0.013 µg/mL, 3.13 µg/mL (≈ 7.61 µM), 1.8 days and 5 days.
In the case of `CCCCCCCCS[C@H](C)[C@](O)(Cn1cncn1)c1ccc(F)cc1F`, the minimal inhibitory concentration (MIC) is ≤ 0.013 µg/mL against Candida albicans and 0.39 µg/mL (≈ 0.981 µM) against Aspergillus fumigatus. The Mean survival in experiment [1] was 7.2 days; in experiment [2] it was 8.6 days.
On to `C[C@@H](SCCCCCCO)[C@](O)(Cn1cncn1)c1ccc(F)cc1F`, for which the figures for the MIC in the experiment on Candida albicans and against Aspergillus fumigatus were ≤ 0.013 µg/mL and 0.78 µg/mL (≈ 2.02 µM), respectively. Also, the Mean survival in experiment [1] and in experiment [2] was 2.8 days each time.
Consider `C[C@@H](SCCCCCO)[C@](O)(Cn1cncn1)c1ccc(F)cc1F`, for which the minimal inhibitory concentration (MIC) in the experiment on Candida albicans came out at 0.025 µg/mL (≈ 0.0673 µM); in the experiment on Aspergillus fumigatus, 0.78 µg/mL (≈ 2.1 µM). The Mean survival was found to be 10 days in experiment [1] and 9.8 days in experiment [2].
`CCCCCCS[C@H](C)[C@](O)(Cn1cncn1)c1ccc(F)cc1F`: the MIC in the experiment with Candida albicans is ≤ 0.013 µg/mL; in the experiment with Aspergillus fumigatus, 0.39 µg/mL (≈ 1.06 µM). Besides, the Mean survival in experiment [1] came out at 6.8 days; in experiment [2] it was 9.2 days.
The like results for `C[C@H]([C@](O)(Cn1cncn1)c1ccc(F)cc1F)S(=O)(=O)CCCCCCCCO` were, in that order, 0.1 µg/mL (≈ 0.224 µM), 6.25 µg/mL (≈ 14 µM), 3 days and 0.5 days.
The like results for `CCS[C@H](C)[C@](O)(Cn1cncn1)c1ccc(F)cc1F` were, in that order, 0.025 µg/mL (≈ 0.0798 µM), 1.56 µg/mL (≈ 4.98 µM), 9.8 days and 10 days.
For `C[C@@H](SCCCCO)[C@](O)(Cn1cncn1)c1ccc(F)cc1F`, in that order: 0.2 µg/mL (≈ 0.56 µM), 6.25 µg/mL (≈ 17.5 µM), 3.2 days and 2.5 days.
In the case of `C[C@@H](SCCCCCCCO)[C@](O)(Cn1cncn1)c1ccc(F)cc1F`, the results for the MIC in the experiment with Candida albicans and in the experiment with Aspergillus fumigatus were ≤ 0.013 µg/mL and 0.78 µg/mL (≈ 1.95 µM), respectively. Moreover, the Mean survival in experiment [1] turned out to be 9.7 days; in experiment [2], 10 days.
For `CCCCCS(=O)(=O)[C@H](C)[C@](O)(Cn1cncn1)c1ccc(F)cc1F`, in that order: 0.2 µg/mL (≈ 0.516 µM), 25 µg/mL (≈ 64.5 µM), 3.6 days and 0.4 days.
For `CCCCCCCCCCCS[C@H](C)[C@](O)(Cn1cncn1)c1ccc(F)cc1F`, the MIC with Candida albicans was ≤ 0.013 µg/mL; against Aspergillus fumigatus, 25 µg/mL (≈ 56.9 µM). The Mean survival in experiment [1] was 1.6 days; in experiment [2] it was 5.8 days.
As for `CCCCCCCS(=O)(=O)[C@H](C)[C@](O)(Cn1cncn1)c1ccc(F)cc1F`, the MIC against Candida albicans was ≤ 0.013 µg/mL; with Aspergillus fumigatus it was 6.25 µg/mL (≈ 15 µM). Further, the Mean survival in experiment [1] worked out at 1.1 days; in experiment [2] it was 0.9 days.
Turning to `CCCCCCCCCCCS(=O)(=O)[C@H](C)[C@](O)(Cn1cncn1)c1ccc(F)cc1F`, the MIC is ≤ 0.013 µg/mL with Candida albicans and 3.13 µg/mL (≈ 6.64 µM) in the experiment with Aspergillus fumigatus. For the same compound, the Mean survival in experiment [1] is 1.6 days; in experiment [2] it was 1.1 days.
The like results for `CCCCCS[C@H](C)[C@](O)(Cn1cncn1)c1ccc(F)cc1F` were, in that order, ≤ 0.013 µg/mL, 0.78 µg/mL (≈ 2.19 µM), 2.5 days and 9.9 days.
Take `CCCCCCS(=O)(=O)[C@H](C)[C@](O)(Cn1cncn1)c1ccc(F)cc1F`: the MIC against Candida albicans turned out to be 0.1 µg/mL (≈ 0.249 µM); with Aspergillus fumigatus, 12.5 µg/mL (≈ 31.1 µM). Further, the Mean survival came out at 1.6 days in experiment [1] and 2.6 days in experiment [2].
`CCCCS[C@H](C)[C@](O)(Cn1cncn1)c1ccc(F)cc1F`: the MIC in the experiment with Candida albicans is ≤ 0.013 µg/mL; in the experiment with Aspergillus fumigatus, 0.78 µg/mL (≈ 2.28 µM). In addition, the Mean survival came out at 2.5 days in experiment [1] and 9.9 days in experiment [2].
For `C[C@@H](SCCCCCCCCO)[C@](O)(Cn1cncn1)c1ccc(F)cc1F`, in that order: ≤ 0.013 µg/mL, ≤ 0.2 µg/mL, 3.5 days and 4.3 days.
The like results for `CCCCS(=O)(=O)[C@H](C)[C@](O)(Cn1cncn1)c1ccc(F)cc1F` were, in that order, 0.2 µg/mL (≈ 0.536 µM), 12.5 µg/mL (≈ 33.5 µM), 4.1 days and 7.6 days.
For `CCCCCCCCCCS(=O)(=O)[C@H](C)[C@](O)(Cn1cncn1)c1ccc(F)cc1F`, in that order: ≤ 0.013 µg/mL, < 0.2 µg/mL, 1.5 days and 3.9 days.
`OC(Cn1cncn1)(Cn1cncn1)c1ccc(F)cc1F` [FLUCONAZOLE]: the MIC is 0.78 µg/mL (≈ 2.55 µM) against Candida albicans and 400 µg/mL (≈ 1310 µM) in the experiment with Aspergillus fumigatus. The Mean survival in experiment [2] worked out at 10 days; in the experiment with Mus musculus, 2.8 days.
Turning to `C[C@H]([C@](O)(Cn1cncn1)c1ccc(F)cc1F)S(C)(=O)=O` [GENACONAZOLE], the results for the MIC in the experiment with Candida albicans and with Aspergillus fumigatus were 0.2 µg/mL (≈ 0.604 µM) and 12.5 µg/mL (≈ 37.7 µM), respectively. The Mean survival in experiment [1] and in experiment [2] was 10 days throughout.

The MIC is the lowest concentration found to suppress growth. Low values mean greater potency, high ones weaker potency.
